Experimental data published in US8748464B2, “Use of SIRT1 activators or inhibitors to modulate an immune response” (The J. David Gladstone Institutes, priority 2008, dated 2014).

What was measured:
[1] = tested on: FLAG-FoxP3 in 293 T cells; test: Western blot of FLAG-FoxP3 (wild type or mutant) or FLAG-AML1/Runx1 expression in 293 T cells; type: cell-based; conditions: for expression of FLAG-AML1/Runx1 / FoxP3 protein expression: Ex-527 50 μM or TSA 400 nM, 16 hours; for FoxP3 protein expression: nicotinamide 5 mM
Description: To determine whether the three newly identified acetylated lysine residues regulate FoxP3 stability, mutants were generated in which each of three lysine residues was substituted to arginines (KR), a conservative mutation that preserves the positive charge of the residue.
To investigate the effect of SIRT1 inhibition and the three newly identified acetylation sites on FoxP3 protein stability, wild type and 3KR mutant FoxP3 protein expression was measured after treatment with cycloheximide (CHX), a general inhibitor of protein translation.
(B) Scheme of acetylated lysine residues identified by mass spectrometry using immunoprecipitated FLAG-FoxP3 protein. The murine protein is shown.

[2] = tested on: naïve CD4+ T cells undergoing differentiation into iTreg cells; test: Intracellular flow cytometry of FoxP3 in naïve CD4+ T cells differentiating into iTreg cells; type: cell-based, mouse
Description: To gain insight into the role of SIRT1 in Treg biology, SIRT1 protein expression during ex vivo Treg differentiation was analyzed. Naïve CD4^+ T cells (CD4+CD25-CD69-CD44-) were isolated from mouse spleen and lymph nodes and were activated by anti-CD3/CD28 antibodies alone or in combination with cytokines driving differentiation into T helper (Th) 1, Th2 or induced Treg (iTreg) cells. While SIRT1 expression was increased upon CD3/CD28 activation, it was decreased after T cell differentiation, most noticeably in iTregs (FIG. 9A, lane 5).
To test whether SIRT1 plays a role in iTreg differentiation, SIRT1 was overexpressed during iTreg differentiation. Activated CD4+ cells were infected with bicistronic retroviral vectors expressing SIRT1 and the Thy1.1 surface marker (MSCV-SIRT1-Thy1.1) or a control vector expressing Thy1.1 alone (MSCV-Thy1.1). Cell were further differentiated into Tregs in the presence of recombinant human TGF-β and recombinant human IL-2 as previously described (Fu et al., 2004). After 3 days, cells were stained for surface Thy1.1 and intracellular FoxP3 and analyzed by flow cytometry. […] Cells were cultured 3 more days in IL-2 alone and were reanalyzed at day 6 after infection. Both, the number of FoxP3^+/Thy1.1^+ cells and FoxP3 MFI were decreased in SIRT1-expressing cells (FIG. 9B). The opposite result was observed when SIRT1 was knocked down during iTreg differentiation using lentiviral shRNA vectors.
To test the effect of Ex-527 on FoxP3 expression in […] FoxP3-expressing cells, Ex-527 was added to naïve CD4+ T cells undergoing differentiation into iTreg cells. The number of FoxP3-expressing cells increased up to 3-fold in the presence of Ex-527 as compared to cells treated with the drug vehicle alone (FIG. 12A). […]
FIGS. 12A and 12B. […] (B) Flow cytometry of GFP in natural Treg populations isolated from GFP-FoxP3 knock-in mice, in which GFP is expressed as a fusion protein with FoxP3. […] Cells were further cultured with either DMSO or Ex-527 for additional 2 and 7 days and FoxP3 expression was analyzed as in (A). […]

[3] = tested on: natural thymus-derived Treg cells; test: Ex vivo expansion of natural Tregs from GFP-Foxp3 knock-in mice, flow cytometry of GFP and western blot; type: cell-based, mouse
Description: To test the effect of Ex-527 in natural thymus-derived Treg cells, GFP+ cells were isolated from GFP-Foxp3 knock-in mice, in which green fluorescent protein (GFP) is expressed as a fusion protein with FoxP3. Total CD4+ T cells were isolated from spleen and lymph nodes of these mice, and GFP+ T cells were sorted with >95% purity. GFP+ T cells were expanded by anti-CD3/CD28 beads and IL-2 for 5 days when Ex-527 or dimethylsulfoxide (DMSO) was added. Two days later, 75% of cells were GFP-positive regardless whether Ex-527 was added or not; however, the MFI of GFP was increased in Ex-527-treated cells (FIG. 12B, day 7). 7 days later, only 5% of cells remained GFP-positive in control-treated cells versus 45% in Ex-527-treated cultures (FIG. 12B, day 12). In addition, the […] of FoxP3 remained higher in Ex-527-treated cells versus control-treated cells (387 versus 263). […] No FoxP3 expression was detected from either GFP-negative cells or cells expanded in the absence of Ex-527 (FIG. 12B). […] Thus, SIRT1 inhibitors, e.g., Ex-527, can be used to maximize ex vivo or in vivo expansion of Tregs for therapeutic purposes.
FIGS. 12A and 12B. Inhibition of SIRT1 activity by Ex-527 promotes differentiation of iTreg cells and FoxP3 expression in nTreg cells. (A) Intracellular flow cytometry (% FoxP3+ cells and MFI) of FoxP3 in induced Tregs treated during differentiation with Ex-527 (50 μM) or DMSO as control. Shown are averages of three independent experiments (mean±SD). (B) Flow cytometry of GFP in natural Treg populations isolated from GFP-FoxP3 knock-in mice, in which GFP is expressed as a fusion protein with FoxP3. GFP+ nTregs were expanded by α-CD3/CD28 beads and hIL-2 (2000 U/ml) for 5 days. Cells were further cultured with either DMSO or Ex-527 for additional 2 and 7 days and FoxP3 expression was analyzed as in (A). Western blot analysis of FoxP3 in cell lysates from GFP−, GFP+, and GFP+ cultures expanded as described in the presence of DMSO or EX-527.

Jurkat T cells = test: IL-2 protein ELISA in supernatant of α-CD3-stimulated Jurkat T cells infected with EF-1α-GFP or EF-1α-Tat-GFP viruses; type: cell-based, human; conditions: 16 hrs
Description: Lentiviral vectors, which contained the heterologous elongation factor 1α (EF-1α) promoter driving Tat and GFP expression, were generated. High titer viral stocks were produced and used to infect Jurkat T cells. […] Infected cultures were stimulated with antibodies specific for the CD3 receptor and treated with increased concentrations of resveratrol (0.4 μM, 2 μM, and 10 μM), a known SIRT1 activator for 16 hrs. IL-2 protein was measured in the culture supernatant by ELISA assay. Following stimulation with α-CD3 antibody, IL-2 protein was superinduced ˜4-fold by wild type Tat (FIG. 8A). In cells expressing Tat, ˜2300 pg/ml of IL-2 protein was detected in response to α-CD3 treatment, whereas in control cells, only ˜600 pg/ml of IL-2 protein was induced.
The effects of small molecule of SIRT1 ([…]) on T cell hyperactivation in Tat-expressing cells were examined. Jurkat T cells were infected with EF-1α-GFP or EF-1α-Tat-GFP viruses (FIG. 8B). Infected cultures were stimulated with α-CD3 antibody and treated with SRT2183 (0.2, 1, and 5 μM) for 16 hrs.
FIGS. 8A and 8B. Resveratrol and small molecule activator of SIRT1 (SRT2183) suppresses T cell hyperactivation by Tat. (A) IL-2 protein levels measured by ELISA in the supernatant of infected cultures. 24 hrs after infection with EF1α-GFP and EF1α-Tat-GFP viruses, Jurkat T cells were stimulated with α-CD3 antibody in the presence of increased concentrations of resveratrol (0.4, 2, and 10 μM) for 16 hrs. (B) 24 hrs after infection with EF1α-GFP and EF1α-Tat-GFP viruses, Jurkat T cells were stimulated with α-CD3 antibody in the presence of increased concentrations of SRT2183 (0.2, 1, and 5 μM) for 16 hrs. IL-2 protein levels were measured by ELISA in the supernatant of infected cultures.

[4] = tested on: FLAG-FoxP3 in 293 T cells; test: Immunoprecipitation/western blot of acetylated FLAG-FoxP3 or HA-AML1/Runx1 in 293 T cells cotransfected with p300; type: cell-based
Text: FIGS. 10A-D. SIRT1 interacts with FoxP3 and inhibition of SIRT1 deacetylase activity increases acetylation of FoxP3. (A) Communoprecipitation/western blot analysis of FLAG-tagged FoxP3 and HA-tagged SIRT1 after transfection of corresponding expression vectors or empty vector controls into 293T cells. (B) Communoprecipitation assay of SIRT1 and FoxP3 deletion mutants. A schematic summary of the binding of FoxP3 mutants to SIRT1 is shown. The forkhead box (FH) indicates the DNA binding domain ZnF, zinc finger domain; LZ, leucine zipper. […] An expression vector for the p300 acetyltransferase was cotransfected with FoxP3. (D) The same experiment as in (C) using HA-AML1/Runx1. Immunoprecipitations were performed with either anti-FLAG antibody coupled to agarose (α-FLAG agarose) (C) or anti-hemagglutinin antibody coupled to agarose (α-HA agarose) (D) and western blotting with rabbit polyclonal antibody to acetyl-lysine (α-acetyl lysine) (α-AcK), α-FLAG or α-HA antibodies.

[5] = 50 μM during iTreg differentiation
[6] = day 7 (two days after addition)

`NC(=O)C1CCCc2c1[nH]c1ccc(Cl)cc21` (centres unmarked) [Ex-527, 6-chloro-2,3,4,9-tetrahydro-1H-carbazole-1-carboxamide] was tested, and the “FoxP3 mRNA levels” value ([1]; 293 T cells) was “No effect”, the “expression of K31R mutant FLAG-FoxP3” value ([1]; 293 T cells, 50 μM) was “increased expression of the K31R mutant to comparable levels as the wild type FoxP3 protein” and the “expression of K262/267R double mutant FLAG-FoxP3” value ([1]; 293 T cells, 50 μM) was “could not further increase”. The “increase of expression of K262R and K267R mutant FLAG-FoxP3” value ([1]; 293 T cells, 50 μM) was “less visible”, the “expression of FLAG-AML1/Runx1” value ([1]; 293 T cells) was “unchanged” and the FoxP3 protein expression ([1]; 293 T cells) was “increased FoxP3 protein expression to a similar extent as nicotinamide”. The “wild type FoxP3 protein expression after cycloheximide” value ([1]; 4 h of CHX treatment) was “stabilized FoxP3 protein expression”, the “3KR mutant FoxP3 protein expression after cycloheximide” value ([1]; 4 hour-time point of CHX treatment) was “no further stabilization” and the “increase of mean fluorescent intensity (MFI) of FoxP3 expression” value [2, 5] was “up to 2 fold”. The “increase of number of FoxP3-expressing cells vs drug vehicle” value [2, 5] was “up to 3 fold”, the “FoxP3 mRNA levels in iTreg cells” value ([2]; during iTreg differentiation) was “no effect” and the GFP-positive cells [3, 6] was 75%. For the same compound, the “MFI of GFP” value [3, 6] was “increased”, the “FoxP3 expression by western blot analysis” value ([3]; day 12) was “remained visible” and the “MFI of FoxP3” value ([3]; day 12) was 387. For the same compound, the GFP-positive cells ([3]; day 12 (7 days after addition)) was 45%.

With `O=C(Nc1ccccc1-c1cn2c(CN3CC[C@@H](O)C3)csc2n1)c1ccc2ccccc2c1` [SRT2183] the “IL-2 protein in Tat expressing cells” value (Jurkat T cells; 5 μM) was “suppressed the production of IL-2 protein”, the “IL-2 protein in control cells” value (Jurkat T cells; 5 μM) was “slight increase in IL-2 protein” and the “IL-2 protein in control and Tat expressing cells” value (Jurkat T cells; 0.2 and 1 μM) was “caused increases in IL-2 protein”.

For `CC(/C=C/C(=O)NO)=C\[C@@H](C)C(=O)c1ccc(N(C)C)cc1` [trichostatin A], the “acetylation levels of FoxP3” value [4] was “hyperacetylation”, the “acetylation of AML1/Runx1” value [4] was “increased to the same extent” and the “expression of FLAG-AML1/Runx1” value ([1]; 293 T cells) was “increased both FoxP3 and AML1/Runx1 expression”. The FoxP3 protein expression ([1]; 293 T cells) was “increased both FoxP3 and AML1/Runx1 expression”.
